The results in this text go back to paper PMC4941645, “Oxidative Stress Induced by Pt(IV) Pro-drugs Based on the Cisplatin Scaffold and Indole Carboxylic Acids in Axial Position” (Scientific Reports, 2016).

For data set [1], the system named is nuclear DNA of A375 cells. As to the kind of experiment: Nuclear DNA platination (GF-AAS). It counts as cell-based, human. To be noted: A375, 5 μM, 24 h. As to the method:
It is well known that the main cellular target of platinum complexes is the DNA, and platination of nuclear DNA is a critical step in triggering the death of cancer cells by platinum-based drugs. On this basis, the amount of platinum bound to nuclear DNA was also assessed in A375 cells treated with the tested Pt(IV) complexes. Cells were treated for 24 h with 5 μM of the tested complexes, the nuclear DNA was isolated and the amount of Pt in each sample was determined by means of GF-AAS analysis. The results expressed as pg Pt/ng DNA are depicted in Fig. 7. […] In particular, 1P led to a roughly 60-fold higher DNA platination level with respect to cisplatin.
A375 cells (3 × 10^6) were seeded in 10 cm Petri dishes in 10 mL of culture medium. Subsequently, cells were treated with the tested complexes (5 μM) for 24 h. The DNA was extracted and purified by a commercial spin column quantification kit (Qiagen DNeasy Blood and Tissue Kit). Only highly purified samples (A260/A230 ≅ 1.8 and […]) were included for analysis to avoid any artifacts. The samples were completely dried and re-dissolved in 200 μL of Milli-Q water (18.2 MΩ) for at least 20 min at 65 °C in a shaking thermo-mixer, mineralized and analyzed for total Pt content by GF-AAS as described above.

The nature of data set [2]: Reduction with ascorbic acid followed by HPLC. It counts as physicochemical. To be noted: 10 eq. ascorbic acid, 37 °C, pH 7, HPLC; for complex reduced: 3 h incubation. As to the method: (§1) The reduction reaction of two representative complexes (1A and 1P) and the release of the indole carboxylic acid ligands was analyzed by HPLC using ascorbic acid as the reductant and 37 °C, pH 7 as physiological conditions (Fig. 4 and S1). The HPLC chromatograms of the reduction reaction of the complexes were compared with the chromatograms of pure samples of the carboxylic acid ligands. […] After 3 h incubation with 10 eq. of ascorbic acid 75% of 1P and 50% of 1A was reduced. […] We further studied the nature of the Pt(II) species produced upon the reduction of 1P and 1A by ^195Pt NMR. […] Unfortunately, monitoring the reduction reaction of the symetrically (2A and 2P) and unsymmetrically (3A–5A and 3P–5P) substituted dicarboxylato complexes was hampered by the poor solubility of the complexes in water and most organic solvents except DMF and DMSO. For the same reason the reduction potentials could not be determined by cyclic voltammetry. However it has been reported that the reduction rate of cis,cis,trans-[Pt(NH3)2Cl2(RCOO)(OH)] monocarboxylato complexes is faster than that of dicarboxylato complexes and this has been attributed to the fact that hydroxido ligands are much better bridging ligands for electron transfer than carboxylate ligands.
The reduction of the complexes 1A and 1P) with ascorbic acid was followed by HPLC using a Phenomenex Luna C18 ([…], 100 Å, 250 mm × 4.60 mm i.d.) column at a flow rate of 1.0 mL/min with 280 nm UV detection at room temperature. The mobile phase was 80:20 acetonitrile (1% trifluoroacetic acid) : water (1% trifluoroacetic acid). The complexes were dissolved in DMF (0.5 mL) and added to a 5 mM solution of ascorbic acid in 2 mM 4-(2-hydroxyethyl)piperazine-1-ethanesulfonic acid (HEPES) buffer (pH 7) and diluted to a final concentration of 0.5 mM using acetonitrile. The process was followed at 37 °C until complete reduction.

Data set [3] in a line: Reduction with ascorbic acid followed by 195Pt NMR. It counts as physicochemical. To be noted: 1 eq. ascorbic acid, 37 °C. As to the method: as §1, with “However it has been reported that the reduction rate of cis,cis,trans-[Pt(NH3)2Cl2(RCOO)(OH)] monocarboxylato complexes is faster than that of dicarboxylato complexes and this has been attributed to the fact that hydroxido ligands are much better bridging ligands for electron transfer than carboxylate ligands.” left out
Compounds 1A and 1P (10 mM) were incubated at 37 °C, respectively, in the presence of 10 mM ascorbic acid in 12 mM HEPES buffer at pH 7. […] The ^195Pt NMR spectra were recorded by inserting a tube with D2O into the NMR tube.

Data set [4] deals with A375 cells. The data set is described as follows: Hoechst 33258 staining, apoptosis morphology. It counts as cell-based, human. To be noted: A375, IC50 doses, 48 h. As to the method: A375 cells were seeded into 8-well tissue-culture slides (BD Falcon, Bedford, MA, USA) at 5 × 10^4 cells/well (0.8 cm^2).
In a further data set the test system is A375 melanoma cells. As to the kind of experiment: Cellular accumulation of Pt (GF-AAS). It counts as cell-based, human. To be noted: for cellular platinum accumulation (in words): A375, 1.5 and 3 μM, 6 and 24 h.
Data set [5] has as its system A375 cells. The data set is described as follows: Mitochondrial membrane potential. It counts as cell-based, human. To be noted: A375, IC50 concentrations, 24 and 48 h. As to the method: A persistent increase in the rate of ROS production is responsible for the accumulation of ROS. In turn, an increase in cellular ROS leads to the loss of the mitochondrial membrane potential (ΔΨm, MMP), thus possibly leading to the induction of apoptosis. The effect induced by the Pt(IV) complexes on the MMP was assessed by treating A375 cells with IC50 concentrations of 1P and 1A and evaluating the energization of treated melanoma cells in terms of the retention of the cationic fluorescent probe tetramethyl rhodamine methyl ester (TMRM).
Figure 9 Effects of 1P and 1A on the cellular mitochondrial membrane potential. […] The percentage of cells with a hypopolarized mitochondrial membrane potential was determined fluorimetrically.
The ΔΨm was assayed using the Mito-ID® Membrane Potential Kit according to the manufacturer’s instructions (Enzo Life Sciences, Farmingdale, NY). Briefly, A375 cells (8 × 10^3 per well) were seeded in 96-well plates, after 24 h, cells were washed with PBS and loaded with Mito-ID Detection Reagent for 30 min at 37 °C in the dark. Afterwards, cells were washed with PBS and incubated with increasing concentrations of the tested complexes. The fluorescence was estimated using a plate reader (Fluoroskan Ascent FL, Labsystem, Finland) at 490 (excitation) and 590 nm (emission).

The test system of the next data set is caspase-3. As to the kind of experiment: Caspase-3 activation. It counts as cell-based, human. To be noted: A375, IC50 doses, 48 h. As to the method:
Caspase-3 cleavage reached values similar to that exerted by the well-known caspase-dependent apoptosis inducer staurosporine.
Protein aliquots (100 μg) were stained at 37 °C for 60 min with fluorescent caspase-3 substrate N-acetyl-Asp-Glu-Val-Asp-AMC (AMC = 7-amino-4-methylcoumarin) (Sigma Co.). Substrate hydrolysis was measured after 60 min by monitoring the release of AMC using a spectrofluorimeter (excitation at 370 nm, emission at 460 nm).

As to `CC(=O)[O][Pt]([NH2])([NH2])([Cl])([Cl])[O]C(=O)Cc1c[nH]c2ccccc12` [Complex 5A], the “DNA platination (in words)” value in data set [1] is on record as “lowest DNA platination capability”.
As to `[NH2][Pt]([NH2])([OH])([Cl])([Cl])[O]C(=O)CCc1c[nH]c2ccccc12` [Complex 1P, cis,cis,trans-[Pt(NH3)2Cl2(IPA)(OH)]], in data set [2], the “time to complete reduction” value came to 24 h and the complex reduced is 75%. Besides, in data set [3], the “time to complete reduction” value is reported as 24 h. Besides, the “apoptotic morphology (in words)” value in the data set on A375 cells [4] is “morphological features typical of cells undergoing apoptosis”. Also, the “cellular platinum, times greater than cisplatin” value in the data set on A375 melanoma cells (A375, 3 μM, 24 h, GF-AAS) is on record as “about 2.3”. Moreover, the “cellular platinum accumulation (in words)” value in the data set on A375 melanoma cells was “internalized most efficiently”. In addition, in the data set with A375 cells [5], the “cells with decreased mitochondrial membrane potential (in words)” value was “significant and time-dependent increase”. Further, the “DNA platination (in words)” value in data set [1] is on record as “highest degree of DNA platination”. The “DNA platination level, fold higher than cisplatin” value in data set [1] (GF-AAS) is reported as “roughly 60”. Also, the “caspase-3 activity, factor over untreated control cells” value with caspase-3 is roughly 5.
For the compound `[NH2][Pt]([NH2])([Cl])([Cl])([O]C(=O)Cc1c[nH]c2ccccc12)[O]C(=O)c1ccccc1` [Complex 3A], the “DNA platination (in words)” value in data set [1] was “most effective platination of cellular DNA”.
With `[NH2][Pt]([NH2])([OH])([Cl])([Cl])[O]C(=O)Cc1c[nH]c2ccccc12` [Complex 1A], in data set [2], the “time to complete reduction” value is on record as 30 h and the complex reduced is recorded as 50%. Moreover, the “time to complete reduction” value in data set [3] amounted to 30 h. Further, in the data set with A375 cells [4], the “apoptotic morphology (in words)” value is reported as “morphological features typical of cells undergoing apoptosis”. The “cells with decreased mitochondrial membrane potential (in words)” value in the data set with A375 cells [5] was “significant and time-dependent increase”. The “DNA platination (in words)” value in data set [1] is “most effective platination of cellular DNA”. Besides, in the data set with caspase-3, the “caspase-3 activity, factor over untreated control cells” value is listed as roughly 5.
Turning to `[NH2][Pt]([NH2])([Cl])([Cl])([O]C(=O)CCC(=O)O)[O]C(=O)Cc1c[nH]c2ccccc12` [Complex 4A], the “cellular platinum accumulation (in words)” value with A375 melanoma cells was “lowest platinum accumulation”. Also, the “cellular uptake level, times lower than cisplatin” value with A375 melanoma cells (A375, GF-AAS) was “about 7”. Further, the “DNA platination (in words)” value in data set [1] is given as “lowest DNA platination capability”.
